“And” between values parts separate entries of the source, which are not always exact repeats. Equal entries are not always repeated. Toxic doses and inconclusive results are not listed. Rule as the data show it: active = T/C of 150% or more; inactive = T/C below 125%.
Tested on: L1210 leukemia ip in BDF1 mice, survival T/C
Test: NCI In Vivo Anticancer Drug Screen. Data for tumor model L1210 Leukemia (intraperitoneal) in B6D2F1 (BDF1) mice
Settings: endpoint: mean survival time, higher = longer survival
Summary of the method: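 Antitumor effect is assessed in tumor-bearing animals. Survival in the compound arm is compared with a vehicle-dosed control arm and expressed as their quotient.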

[1] = dose: 100.0 mg/kg/injection, schedule: Q01DX001 (ip), vehicle: saline
[2] = dose: 100.0 mg/kg/injection, schedule: Q04DX003 (ip), vehicle: Klucel (hydroxypropylcellulose) (HPC)
[3] = dose: 200.0 mg/kg/injection, schedule: Q01DX001 (ip), vehicle: saline
[4] = dose: 200.0 mg/kg/injection, schedule: Q04DX003 (ip), vehicle: Klucel (hydroxypropylcellulose) (HPC)
[5] = dose: 400.0 mg/kg/injection, schedule: Q01DX001 (ip), vehicle: saline
[6] = dose: 400.0 mg/kg/injection, schedule: Q04DX003 (ip), vehicle: Klucel (hydroxypropylcellulose) (HPC)
[7] = dose: 100.0 mg/kg/injection, schedule: Q04DX003 (ip), vehicle: saline
[8] = dose: 400.0 mg/kg/injection, schedule: Q04DX003 (ip), vehicle: saline
[9] = dose: 100.0 mg/kg/injection, schedule: Q01DX009 (ip), vehicle: saline with Tween-80
[10] = dose: 200.0 mg/kg/injection, schedule: Q01DX009 (ip), vehicle: saline with Tween-80
[11] = dose: 400.0 mg/kg/injection, schedule: Q01DX009 (ip), vehicle: saline with Tween-80
[12] = dose: 50.0 mg/kg/injection, schedule: Q01DX001 (ip), vehicle: carboxymethylcellulose (CMC)
[13] = dose: 100.0 mg/kg/injection, schedule: Q01DX001 (ip), vehicle: carboxymethylcellulose (CMC)
[14] = dose: 200.0 mg/kg/injection, schedule: Q01DX001 (ip), vehicle: carboxymethylcellulose (CMC)

Measured: T/C

O=P(O)(O)/C=C/c1ccccc1
inactive: [1] 97 % of control | [2] 90 % of control | [3] 91 % of control | [4] 98 % of control | [5] 98 % of control

CC1(C)Cc2cccc(OC(=O)NO)c2O1
inactive: dose: 12.5 mg/kg/injection, schedule: Q01DX001 (ip), vehicle: Klucel (hydroxypropylcellulose) (HPC) 100 % of control | dose: 25.0 mg/kg/injection, schedule: Q01DX001 (ip), vehicle: Klucel (hydroxypropylcellulose) (HPC) 96 % of control | dose: 50.0 mg/kg/injection, schedule: Q01DX001 (ip), vehicle: Klucel (hydroxypropylcellulose) (HPC) 96 % of control

FC(Cl)C(F)(F)Br (centres undefined)
inactive: dose: 75.0 mg/kg/injection, schedule: Q01DX005 (ip), vehicle: saline 95 % of control | dose: 150.0 mg/kg/injection, schedule: Q01DX005 (ip), vehicle: saline 101 % of control | dose: 300.0 mg/kg/injection, schedule: Q01DX005 (ip), vehicle: saline 98 % of control | dose: 600.0 mg/kg/injection, schedule: Q01DX001 (ip), vehicle: acetone 101 % of control

CC(=O)OCC(Cl)C(Cl)CCl (centres undefined)
inactive: [2] 96 % of control | [4] 95 % of control | [6] 95 % of control

CC(=O)OC1CC2(Cl)C(Cl)=C(Cl)C1(Cl)C2(Cl)Cl (centres undefined)
inactive: [1] 100 % of control | [7] 89 % of control | [3] 98 % of control | [5] 98 % of control | [8] 103 % of control

CC(C)(CSCC(C)(C)C(=O)O)C(=O)O
inactive: [2] 104 % of control | [4] 94 % of control | [6] 91 % of control

CN(NC(=O)c1ccccc1)c1ccccc1
inactive: dose: 100.0 mg/kg/injection, schedule: Q04DX003 (ip), vehicle: saline with Tween-80 96 % of control | dose: 200.0 mg/kg/injection, schedule: Q04DX003 (ip), vehicle: saline with Tween-80 107 % of control | dose: 400.0 mg/kg/injection, schedule: Q04DX003 (ip), vehicle: saline with Tween-80 105 % of control

Cc1cc2nc3c(nc2cc1C)C1CC(Br)CCC1N3 (centres undefined)
inactive: [1] 97 % of control | [3] 95 % of control | [5] 91 % of control

CCCCOP(=O)(Nc1ccccc1)OCCCC
inactive: dose: 100.0 mg/kg/injection, schedule: Q04DX002 (sc), vehicle: olive oil, sesame oil, peanut oil 103 % of control | dose: 200.0 mg/kg/injection, schedule: Q04DX002 (sc), vehicle: olive oil, sesame oil, peanut oil 103 % of control | dose: 400.0 mg/kg/injection, schedule: Q04DX002 (sc), vehicle: olive oil, sesame oil, peanut oil 90 % of control

Cc1cc([N+](=O)[O-])c(Cl)cc1N
inactive: dose: 100.0 mg/kg/injection, schedule: Q04DX003 (ip), vehicle: gum acacia 93 % of control | dose: 200.0 mg/kg/injection, schedule: Q04DX003 (ip), vehicle: gum acacia 95 % of control | dose: 400.0 mg/kg/injection, schedule: Q04DX003 (ip), vehicle: gum acacia 95 % of control

CCOC(=O)C(NC(=O)OCc1ccccc1)(OCc1ccccc1)C(C)C (centres undefined)
inactive: [9] 105 % of control | [10] 98 % of control | [11] 100 % of control

CC(=O)[C@H]1C[C@@H](CC(=O)O)C1(C)C
inactive: [1] 106 % of control | [7] 96 % of control | [3] 103 % of control | dose: 200.0 mg/kg/injection, schedule: Q04DX003 (ip), vehicle: saline 88 % of control | [5] 97 % of control | [8] 96 % of control

CCC[As](=O)(O)CCC
inactive: dose: 25.0 mg/kg/injection, schedule: Q01DX009 (ip), vehicle: saline 107 % of control | dose: 50.0 mg/kg/injection, schedule: Q01DX009 (ip), vehicle: saline 112 % of control | [7] 111 % of control

O=C(NCCN1CCOCC1)Nc1cccc2c1CCCC2
inactive: dose: 100.0 mg/kg/injection, schedule: Q04DX002 (ip), vehicle: saline with Tween-80 94 % of control | dose: 200.0 mg/kg/injection, schedule: Q04DX002 (ip), vehicle: saline with Tween-80 108 % of control | dose: 400.0 mg/kg/injection, schedule: Q04DX002 (ip), vehicle: saline with Tween-80 116 % of control

CN(C)C(=S)Sc1nc2ccccc2s1
inactive: [2] 101 % of control | [4] 104 % of control | [6] 101 % of control

CN(C)c1ccc(/C=C\c2ccnc3ccccc23)cc1
inactive: dose: 10.0 mg/kg/injection, schedule: Q01DX Z (ip), vehicle: methylcellulose (MC) 98 % of control | dose: 18.0 mg/kg/injection, schedule: Q01DX010 (ip), vehicle: saline 93 % of control and 102 % of control | dose: 27.0 mg/kg/injection, schedule: Q01DX010 (ip), vehicle: saline 95 % of control and 102 % of control | dose: 40.0 mg/kg/injection, schedule: Q01DX010 (ip), vehicle: saline 101 % of control and 91 % of control | [12] 106 % of control | dose: 60.0 mg/kg/injection, schedule: Q01DX010 (ip), vehicle: saline 86 % of control and 90 % of control | [13] 97 % of control | [14] 89 % of control | dose: 400.0 mg/kg/injection, schedule: Q01DX001 (ip), vehicle: carboxymethylcellulose (CMC) 101 % of control

CC(=O)c1ccccc1OS(=O)(=O)c1ccc([N+](=O)[O-])cc1
inactive: [9] 105 % of control | [2] 105 % of control | [10] 111 % of control | [4] 100 % of control | [11] 114 % of control | [6] 103 % of control

Cc1c(/C=N/NC(=O)CCCC(=O)N/N=C/c2c(C)n(C)n(-c3ccccc3)c2=O)c(=O)n(-c2ccccc2)n1C
inactive: dose: 50.0 mg/kg/injection, schedule: Q01DX001 (ip), vehicle: saline 102 % of control | [1] 93 % of control

CCOC(=O)c1ccc(NC(=O)Nc2ccc(Cl)cc2[N+](=O)[O-])cc1
inactive: dose: 100.0 mg/kg/injection, schedule: Q01DX009 (ip), vehicle: Klucel (hydroxypropylcellulose) (HPC) 95 % of control and 92 % of control | dose: 200.0 mg/kg/injection, schedule: Q01DX009 (ip), vehicle: Klucel (hydroxypropylcellulose) (HPC) 92 % of control | dose: 400.0 mg/kg/injection, schedule: Q01DX009 (ip), vehicle: Klucel (hydroxypropylcellulose) (HPC) 88 % of control and 92 % of control

COC1=C(OC)C(=O)c2c(c(=O)c3ccccc3n2C)C1=O
inactive: dose: 25.0 mg/kg/injection, schedule: Q01DX001 (ip), vehicle: carboxymethylcellulose (CMC) 104 % of control | [12] 95 % of control | [13] 101 % of control

O=c1[nH]nnc2c1cnn2-c1ccccc1
inactive: [13] 101 % of control | [14] 97 % of control

O=C(c1ccccc1)N(c1ccccc1)c1cccc(Cl)n1
inactive: dose: 50.0 mg/kg/injection, schedule: Q01DX009 (ip), vehicle: saline with Tween-80 93 % of control | [9] 93 % of control | [10] 90 % of control

O=[N+]([O-])c1ccc(Oc2cccc([N+](=O)[O-])c2)cc1
inactive: dose: 222.0 mg/kg/injection, schedule: Q01DX Z (ip), vehicle: methylcellulose (MC) 90 % of control | dose: 333.0 mg/kg/injection, schedule: Q01DX Z (ip), vehicle: methylcellulose (MC) 95 % of control | dose: 500.0 mg/kg/injection, schedule: Q01DX Z (ip), vehicle: methylcellulose (MC) 92 % of control
